# Measurements taken from paper PMC12446542, “Neddylation inhibitor MLN4924 enhances H3K18 lactylation via binding to LDH and downregulates ITGB4 to block metastasis” (The Journal of Biological Chemistry, 2025).
# Biological target: T1, LDHA (Homo sapiens, UniProt P00338)
# T1 construct: purified recombinant LDHA protein (CUSABIO, CSB-EP012832HU)
# Test: SPR (Biacore 8K, LDHA immobilized on CM5 chip, steady-state analysis); supported by CETSA in SK-BR-3 cells
# Format: binding
# Excerpt: SPR (Biacore 8K, LDHA immobilized on CM5 chip, steady-state analysis); supported by CETSA in SK-BR-3 cells on LDHA | using purified recombinant LDHA protein and MLN4924.
smiles,measurement,value
NS(=O)(=O)OC[C@@H]1C[C@@H](n2ccc3c(N[C@H]4CCc5ccccc54)ncnc32)C[C@@H]1O [MLN4924],Kd,35.5 µM
